From paper PMC10135057, “Molecular Modification of Kex2 P1’ Site Enhances Expression and Druggability of Fungal Defensin” (Antibiotics, 2023)
Values joined by “and” are separate entries in the source; they are usually repeats but may differ in a detail not shown here. Equal values may be shown once.

Legend:
[1] = system: Staphylococcus aureus ATCC 43300; assay: microbe, parasite or virus in culture; assay type: cell-based; settings: Staphylococcus aureus, ATCC43300
Protocol: (§1) The minimal inhibitory concentrations (MICs) assay was performed according to the CLSI procedures with the final peptide concentrations of 256, 128, 64, 32, 16, 8, 4, 2, 1, and 0.5 μg/mL, respectively. All tests were conducted in triplicate.

[2] = system: Escherichia coli ATCC 25922; assay: microbe, parasite or virus in culture; assay type: cell-based; settings: Escherichia coli, ATCC25922
Protocol: as §1

S. aureus ATCC 43300 [3] = assay: Bactericidal kinetics (time-killing curves); assay type: cell-based, Staphylococcus aureus; settings: 2× MIC, within 2 h; S. aureus ATCC 43300, 10^6 CFU/mL
Protocol: The S. aureus ATCC 43300 in logarithmic growth stage was diluted to a final concentration of 10^6 CFU/mL. […] Samples were taken at 0, 0.5, 1, 2, 4, 6, 8, 10, 20, and 24 h, serially diluted, and visible colonies were counted on MHA plates.

S. aureus ATCC 43300 [4] = assay: Stability in mouse serum (MIC after treatment); assay type: in vitro ADME, Staphylococcus aureus; settings: mouse serum (25%), 1–4 h; MIC vs S. aureus ATCC 43300; triplicate
Protocol: (§2) The tolerance of FNZ to temperature and pH was evaluated. The stability of FNZ in simulated gastric fluid, artificial intestinal fluid and mouse serum was carried out as previously described. […] All assays were conducted in triplicate.

S. aureus ATCC 43300 [5] = assay: microbe, parasite or virus in culture; assay type: cell-based, Staphylococcus aureus
Protocol: The effects of combination were evaluated by calculating the FICI. FICI ≤ 0.5 was defined as synergy, 0.5 < FICI ≤ 1 was defined as additivity, 1 < FICI ≤ 4 was defined as indifference, and FICI > 4 was defined as antagonism.

S. aureus ATCC 43300 [6] = assay: Thermal stability (MIC after heat treatment); assay type: physicochemical, Staphylococcus aureus; settings: MIC vs S. aureus ATCC 43300, triplicate
Protocol: as §2

[7] = system: Salmonella enterica ATCC 13076; assay: Minimal inhibitory concentration (MIC); assay type: cell-based; settings: ATCC13076, CLSI procedure, triplicate
Protocol: as §1

[8] = system: Pseudomonas aeruginosa CICC 20625; assay: Minimal inhibitory concentration (MIC); assay type: cell-based; settings: CICC20625, CLSI procedure, triplicate
Protocol: as §1

S. aureus E48 = assay: microbe, parasite or virus in culture; assay type: cell-based, Staphylococcus aureus; settings: Staphylococcus aureus, E48
Protocol: as §1

S. aureus ATCC 25923 = assay: microbe, parasite or virus in culture; assay type: cell-based, Staphylococcus aureus; settings: Staphylococcus aureus, ATCC25923
Protocol: as §1

S. aureus CVCC 546 = assay: microbe, parasite or virus in culture; assay type: cell-based, Staphylococcus aureus; settings: Staphylococcus aureus, CVCC546
Protocol: as §1

S. aureus ATCC 43300 [9] = assay: Stability in artificial intestinal fluid (MIC after treatment); assay type: in vitro ADME, Staphylococcus aureus; settings: 10 min, MIC vs S. aureus ATCC 43300, triplicate
Protocol: as §2

[10] = system: S. epidermidis ATCC 12228; assay: microbe, parasite or virus in culture; assay type: cell-based, Staphylococcus epidermidis; settings: Staphylococcus epidermidis, ATCC12228
Protocol: as §1

S. aureus ATCC 43300 [11] = assay: Stability in simulated gastric fluid (MIC after treatment); assay type: in vitro ADME, Staphylococcus aureus; settings: 1 h, MIC vs S. aureus ATCC 43300, triplicate
Protocol: as §2

S. aureus ATCC 43300 [12] = assay: Salts stability (MIC after incubation with Na+ or Mg2+); assay type: cell-based, Staphylococcus aureus; settings: for MIC: read-out: MIC after treatment
S. aureus ATCC 43300 [13] = assay: Post-antibiotic effect (PAE); assay type: cell-based, Staphylococcus aureus; settings: 2× MIC, 2 h exposure, 10^8 CFU/mL S. aureus ATCC 43300, 1000-fold dilution
From the text: After the exposed time, the bacteria suspension was reconstructed by dilution to 1000 times with MHB medium to remove the influence of peptides and antibiotics. Samples were taken every hour, and then coated on MHA plate after gradient dilution. The calculation formula was from previous studies.

S. aureus ATCC 43300 [14] = assay: pH stability (MIC after pH treatment); assay type: physicochemical, Staphylococcus aureus; settings: MIC vs S. aureus ATCC 43300, triplicate
Protocol: as §2

[15] = 50 mM Mg2+, 37 °C, 1 h, MIC vs S. aureus ATCC 43300, triplicate
[16] = 100 mM Mg2+, 37 °C, 1 h, MIC vs S. aureus ATCC 43300, triplicate
[17] = 100 mM Na+, 37 °C, 1 h, MIC vs S. aureus ATCC 43300, triplicate
[18] = 150 mM Mg2+, 37 °C, 1 h, MIC vs S. aureus ATCC 43300, triplicate
[19] = 150 mM Na+, 37 °C, 1 h, MIC vs S. aureus ATCC 43300, triplicate
[20] = 300 mM Mg2+, 37 °C, 1 h, MIC vs S. aureus ATCC 43300, triplicate
[21] = 300 mM Na+, 37 °C, 1 h, MIC vs S. aureus ATCC 43300, triplicate
[22] = 500 mM Mg2+, 37 °C, 1 h, MIC vs S. aureus ATCC 43300, triplicate
[23] = 500 mM Na+, 37 °C, 1 h, MIC vs S. aureus ATCC 43300, triplicate

CN[C@H](CC(C)C)C(=O)N[C@H]1C(=O)N[C@@H](CC(N)=O)C(=O)N[C@H]2C(=O)N[C@H]3C(=O)N[C@H](C(=O)N[C@H](C(=O)O)c4cc(O)cc(O)c4-c4cc3ccc4O)[C@H](O)c3ccc(c(Cl)c3)Oc3cc2cc(c3O[C@@H]2O[C@H](CO)[C@@H](O)[C@H](O)[C@H]2O[C@H]2C[C@](C)(N)[C@H](O)[C@H](C)O2)Oc2ccc(cc2Cl)[C@H]1O [Vancomycin, vancomycin]
MIC [1]: 1 µg/mL and 0.67 µM
MIC [2]: 128 µg/mL and 86 µM
Decrease of bacterial counts (log10 CFU/mL) (S. aureus ATCC 43300 [3]): 0.216 log10 CFU/mL
MIC after treatment (S. aureus ATCC 43300 [4]): 1 μg/mL and 0.67 μM
MIC (S. aureus ATCC 43300 [5]; Staphylococcus aureus, ATCC43300, 16 h, read-out: MICa (MIC of drug alone)): 1 µg/mL
Combination effect with FNZ (in words) (S. aureus ATCC 43300 [5]; checkerboard, S. aureus ATCC 43300): synergistic effect
FIC (S. aureus ATCC 43300 [5]; combination FNZ + Van, S. aureus ATCC 43300): 0.125
MICc (MIC of drug used in combination) (S. aureus ATCC 43300 [5]; combination FNZ + Van, S. aureus ATCC 43300, checkerboard, 37 °C, 16 h): 0.125 µg/mL
FICI (fractional inhibitory concentration index) (S. aureus ATCC 43300 [5]; combination of FNZ with the named antibiotic, S. aureus ATCC 43300, ≤0.5 synergy, 0.5-1 additivity, 1-4 indifference, >4 antagonism): 0.25 and < 0.5
MIC after treatment (S. aureus ATCC 43300 [6]; 20 °C for 1 h): 1 μg/mL and 0.67 μM
MIC after treatment (S. aureus ATCC 43300 [6]; 40 °C for 1 h): 1 μg/mL and 0.67 μM
MIC after treatment (S. aureus ATCC 43300 [6]; 60 °C for 1 h): 1 μg/mL and 0.67 μM
MIC after treatment (S. aureus ATCC 43300 [6]; 80 °C for 1 h): 1 μg/mL and 0.67 μM
MIC after treatment (S. aureus ATCC 43300 [6]; 100 °C for 1 h): 1 μg/mL and 0.67 μM
MIC [7]: > 128 µg/mL and > 86 µM
MIC [8]: > 128 µg/mL and > 86 µM
MIC (S. aureus E48): 1 µg/mL and 0.67 µM
MIC (S. aureus ATCC 25923): 4 µg/mL and 2.69 µM
MIC (S. aureus CVCC 546): 1 µg/mL and 0.67 µM
MIC after treatment (S. aureus ATCC 43300 [9]): 1 μg/mL and 0.67 μM
MIC [10]: 1 µg/mL and 0.67 µM
MIC after treatment (S. aureus ATCC 43300 [11]): 1 μg/mL and 0.67 μM
MIC after treatment (S. aureus ATCC 43300 [12]; [15]): 1 µg/mL
MIC (S. aureus ATCC 43300 [12]; [15]): 0.67 µM
MIC after treatment (S. aureus ATCC 43300 [12]; [16]): 1 µg/mL
MIC (S. aureus ATCC 43300 [12]; [16]): 0.67 µM
MIC after treatment (S. aureus ATCC 43300 [12]; [17]): 1 µg/mL
MIC (S. aureus ATCC 43300 [12]; [17]): 0.67 µM
MIC after treatment (S. aureus ATCC 43300 [12]; [18]): 1 µg/mL
MIC (S. aureus ATCC 43300 [12]; [18]): 0.67 µM
MIC after treatment (S. aureus ATCC 43300 [12]; [19]): 1 µg/mL
MIC (S. aureus ATCC 43300 [12]; [19]): 0.67 µM
MIC after treatment (S. aureus ATCC 43300 [12]; [20]): 1 µg/mL
MIC (S. aureus ATCC 43300 [12]; [20]): 0.67 µM
MIC after treatment (S. aureus ATCC 43300 [12]; [21]): 1 µg/mL
MIC (S. aureus ATCC 43300 [12]; [21]): 0.67 µM
MIC after treatment (S. aureus ATCC 43300 [12]; [22]): 1 µg/mL
MIC (S. aureus ATCC 43300 [12]; [22]): 0.67 µM
MIC after treatment (S. aureus ATCC 43300 [12]; [23]): 1 µg/mL
MIC (S. aureus ATCC 43300 [12]; [23]): 0.67 µM
MIC (S. aureus ATCC 43300 [12]; Staphylococcus aureus, ATCC43300, 1 h): 1 µg/mL and 0.67 µM
PAE (S. aureus ATCC 43300 [13]): 1.3 h
MIC after treatment (S. aureus ATCC 43300 [14]; pH 2): 1 μg/mL and 0.67 μM
MIC after treatment (S. aureus ATCC 43300 [14]; pH 4): 1 μg/mL and 0.67 μM
MIC after treatment (S. aureus ATCC 43300 [14]; pH 6): 1 μg/mL and 0.67 μM
MIC after treatment (S. aureus ATCC 43300 [14]; pH 8): 1 μg/mL and 0.67 μM
MIC after treatment (S. aureus ATCC 43300 [14]; pH 10): 1 μg/mL and 0.67 μM
